Results: patent publication US20170050957A1, “4-AMINO-6-(HETEROCYCLIC)PICOLINATES AND 6-AMINO-2-(HETEROCYCLIC)PYRIMIDINE-4-CARBOXYLATES AND THEIR USE AS HERBICIDES” (Dow AgroSciences LLC, priority 2013, published 2017)
Where two headings read alike, the source gives them in different places. One block for each compound: values may come before it.

Legend:
[1] = tested on: Key Grass and Sedge Weeds as well as Grass Crops; test: Post-emergent Test II herbicidal activity (Table 16); format: in vivo; conditions: for pest or weed control at 35 g/ha / pest or weed control at 70 g/ha / pest or weed control at 140 g/ha: post-emergence, 336 h, 14 days after application; for Visual Growth Reduction (%) 14 Days After Application, ECHCG / Visual Growth Reduction (%) 14 Days After Application, SETFA / Visual Growth Reduction (%) 14 Days After Application, ZEAMX / Visual Growth Reduction (%) 14 Days After Application, ORYSA / Visual Growth Reduction (%) 14 Days After Application, TRZAS / Visual Growth Reduction (%) 14 Days After Application, CYPES: 14 d
Experimental: (§1) Post-emergent Test II: Seeds or nutlets of the desired test plant species were planted in Sun Gro Metro-Mix® 360 planting mixture, which typically has a pH of 6.0 to 6.8 and an organic matter content of about 30 percent, in plastic pots with a surface area of 64 square centimeters. When required to ensure good germination and healthy plants, a fungicide treatment and/or other chemical or physical treatment was applied. The plants were grown for 7-21 d in a greenhouse with an approximate 15 h photoperiod which was maintained at about 23-29° C. during the day and 22-28° C. during the night. Nutrients and water were added on a regular basis and supplemental lighting was provided with overhead metal halide 1000-Watt lamps as necessary. The plants were employed for testing when they reached the first or second true leaf stage.
(§2) A weighed amount, determined by the highest rate to be tested, of each test compound was placed in a 25 mL glass vial and was dissolved in 4 mL of a 97:3 v/v mixture of acetone and DMSO to obtain concentrated stock solutions. […] The concentrated stock solutions obtained were diluted with 20 mL of an aqueous mixture containing acetone, water, isopropyl alcohol, DMSO, Atplus 411F crop oil concentrate, and Triton® X-155 surfactant in a 48.5:39:10:1.5:1.0:0.02 v/v ratio to obtain spray solutions containing the highest application rates. Additional application rates were obtained by serial dilution of 12 mL of the high rate solution into a solution containing 2 mL of 97:3 v/v mixture of acetone and DMSO and 10 mL of an aqueous mixture containing acetone, water, isopropyl alcohol, DMSO, Atplus 411F crop oil concentrate, and Triton X-155 surfactant in a 48.5:39:10:1.5:1.0:0.02 v/v ratio to obtain 1/2×, 1/4×, 1/8× and 1/16× rates of the high rate. Compound requirements are based upon a 12 mL application volume at a rate of 187 liters per hectare (L/ha). Formulated compounds were applied to the plant material with an overhead Mandel track sprayer equipped with 8002E nozzles calibrated to deliver 187 L/ha over an application area of 0.503 square meters at a spray height of 18 inches (43 cm) above the average plant canopy height. Control plants were sprayed in the same manner with the solvent blank.
(§3) The treated plants and control plants were placed in a greenhouse as described above and watered by subirrigation to prevent wash-off of the test compounds. After 14 d, the condition of the test plants as compared with that of the untreated plants was determined visually and scored on a scale of 0 to 100 percent where 0 corresponds to no injury and 100 corresponds to complete kill.

[2] = tested on: Key Broadleaf Weed and Crop Species; test: Post-emergent Test II herbicidal activity (Table 15); format: in vivo; conditions: post-emergence, 336 h, 14 d; for pest or weed control at 35 g/ha: 35 g ai/ha
Experimental: as §1, §2, §3

Structure (SMILES): COC(=O)c1nc(-c2cccc3c2ccn3C)c(F)c(N)c1Cl [Compound 1.41]
melting point: 167 to 169 °C

Structure (SMILES): COC(=O)c1nc(-c2ccc(Cl)c3cc[nH]c23)nc(N)c1OC [Compound 1.50]
melting point: 147 to 149 °C

Structure (SMILES): COC(=O)c1nc(-c2ccc3c(N(C)C)noc3c2)c(F)c(N)c1Cl [Compound 8.01]
pest or weed control at 35 g/ha ([1]; Cyperus esculentus, yellow nutsedge (Cyperus esculentus), 35 g ai/ha, read-out: Visual Growth Reduction (%) 14 Days After Application CYPES): 0 to 29% | pest or weed control at 70 g/ha ([1]; Cyperus esculentus, yellow nutsedge (Cyperus esculentus), 70 g ai/ha, read-out: Visual Growth Reduction (%) 14 Days After Application CYPES): 0 to 29% | pest or weed control at 140 g/ha ([1]; Cyperus esculentus, yellow nutsedge (Cyperus esculentus), 140 g ai/ha, read-out: Visual Growth Reduction (%) 14 Days After Application CYPES): 0 to 29% | pest or weed control at 35 g/ha ([1]; Echinochloa crus-galli, barnyardgrass (Echinochloa crus-galli), 35 g ai/ha, read-out: Visual Growth Reduction (%) 14 Days After Application ECHCG): 0 to 29% | pest or weed control at 70 g/ha ([1]; Echinochloa crus-galli, barnyardgrass (Echinochloa crus-galli), 70 g ai/ha, read-out: Visual Growth Reduction (%) 14 Days After Application ECHCG): 0 to 29% | pest or weed control at 140 g/ha ([1]; Echinochloa crus-galli, barnyardgrass (Echinochloa crus-galli), 140 g ai/ha, read-out: Visual Growth Reduction (%) 14 Days After Application ECHCG): 0 to 29% | pest or weed control at 35 g/ha ([1]; Oryza sativa, rice (Oryza sativa), 35 g ai/ha, read-out: Visual Growth Reduction (%) 14 Days After Application ORYSA): 0 to 29% | pest or weed control at 70 g/ha ([1]; Oryza sativa, rice (Oryza sativa), 70 g ai/ha, read-out: Visual Growth Reduction (%) 14 Days After Application ORYSA): 0 to 29% | pest or weed control at 140 g/ha ([1]; Oryza sativa, rice (Oryza sativa), 140 g ai/ha, read-out: Visual Growth Reduction (%) 14 Days After Application ORYSA): 0 to 29% | pest or weed control at 35 g/ha ([1]; Setaria faberi, giant foxtail (Setaria faberi), 35 g ai/ha, read-out: Visual Growth Reduction (%) 14 Days After Application SETFA): 0 to 29% | pest or weed control at 70 g/ha ([1]; Setaria faberi, giant foxtail (Setaria faberi), 70 g ai/ha, read-out: Visual Growth Reduction (%) 14 Days After Application SETFA): 0 to 29% | pest or weed control at 140 g/ha ([1]; Setaria faberi, giant foxtail (Setaria faberi), 140 g ai/ha, read-out: Visual Growth Reduction (%) 14 Days After Application SETFA): 0 to 29% | pest or weed control at 35 g/ha ([1]; Triticum aestivum, wheat, spring (Triticum aestivum), 35 g ai/ha, read-out: Visual Growth Reduction (%) 14 Days After Application TRZAS): 0 to 29% | pest or weed control at 70 g/ha ([1]; Triticum aestivum, wheat, spring (Triticum aestivum), 70 g ai/ha, read-out: Visual Growth Reduction (%) 14 Days After Application TRZAS): 0 to 29% | pest or weed control at 140 g/ha ([1]; Triticum aestivum, wheat, spring (Triticum aestivum), 140 g ai/ha, read-out: Visual Growth Reduction (%) 14 Days After Application TRZAS): 0 to 29% | pest or weed control at 35 g/ha ([1]; Zea mays, maize, corn (Zea mays), 35 g ai/ha, read-out: Visual Growth Reduction (%) 14 Days After Application ZEAMX): 0 to 29% | pest or weed control at 70 g/ha ([1]; Zea mays, maize, corn (Zea mays), 70 g ai/ha, read-out: Visual Growth Reduction (%) 14 Days After Application ZEAMX): 0 to 29% | pest or weed control at 140 g/ha ([1]; Zea mays, maize, corn (Zea mays), 140 g ai/ha, read-out: Visual Growth Reduction (%) 14 Days After Application ZEAMX): 0 to 29% | pest or weed control at 35 g/ha ([2]; Abutilon theophrasti, velvetleaf (Abutilon theophrasti), read-out: Visual Growth Reduction (%) 14 Days After Application, ABUTH): 0 to 29% | pest or weed control at 35 g/ha ([2]; Amaranthus retroflexus, redroot pigweed (Amaranthus retroflexus), read-out: Visual Growth Reduction (%) 14 Days After Application, AMARE): 0 to 29% | pest or weed control at 35 g/ha ([2]; Brassica napus, oilseed rape, canola (Brassica napus), read-out: Visual Growth Reduction (%) 14 Days After Application, BRSNN): 0 to 29% | pest or weed control at 70 g/ha ([2]; Brassica napus, oilseed rape, canola (Brassica napus), 70 g ai/ha, read-out: Visual Growth Reduction (%) 14 Days After Application, BRSNN): 0 to 29% | pest or weed control at 140 g/ha ([2]; Brassica napus, oilseed rape, canola (Brassica napus), 140 g ai/ha, read-out: Visual Growth Reduction (%) 14 Days After Application, BRSNN): 0 to 29% | pest or weed control at 35 g/ha ([2]; Chenopodium album, lambsquarters (Chenopodium album), read-out: Visual Growth Reduction (%) 14 Days After Application, CHEAL): 0 to 29% | pest or weed control at 35 g/ha ([2]; Euphorbia heterophylla, wild poinsettia (Euphorbia heterophylla), read-out: Visual Growth Reduction (%) 14 Days After Application, EPHHL): 0 to 29% | pest or weed control at 35 g/ha ([2]; Helianthus annuus, sunflower (Helianthus annuus), read-out: Visual Growth Reduction (%) 14 Days After Application, HELAN): 0 to 29%

Structure (SMILES): C=Cc1c(C(=O)OC)nc(-c2ccc3cc[nH]c3c2F)c(F)c1N [Compound 1.18, Methyl 4-amino-5-fluoro-6-(7-fluoro-1H-indol-6-yl)-3-vinylpicolinate]
melting point: 164 to 166 °C

Structure (SMILES): Cn1ccc2c(-c3nc(C(=O)O)c(Cl)c(N)c3F)cccc21 [Compound 1.42]
melting point: 158 to 160 °C

Structure (SMILES): Nc1c(Cl)c(C(=O)O)nc(-c2ccc3cc[nH]c3c2)c1Cl [Compound 106]
Visual Growth Reduction (%) 14 Days After Application, ECHCG ([1]; barnyardgrass (Echinochloa crus-galli), 35 g ai/ha): G (0-29) | Visual Growth Reduction (%) 14 Days After Application, ECHCG ([1]; barnyardgrass (Echinochloa crus-galli), 70 g ai/ha): D (60-74) | Visual Growth Reduction (%) 14 Days After Application, ECHCG ([1]; barnyardgrass (Echinochloa crus-galli), 140 g ai/ha): C (75-84) | Visual Growth Reduction (%) 14 Days After Application, SETFA ([1]; giant foxtail (Setaria faberi), 35 g ai/ha): G (0-29) | Visual Growth Reduction (%) 14 Days After Application, SETFA ([1]; giant foxtail (Setaria faberi), 70 g ai/ha): G (0-29) | Visual Growth Reduction (%) 14 Days After Application, SETFA ([1]; giant foxtail (Setaria faberi), 140 g ai/ha): G (0-29) | Visual Growth Reduction (%) 14 Days After Application, ZEAMX ([1]; maize, corn (Zea mays), 35 g ai/ha): G (0-29) | Visual Growth Reduction (%) 14 Days After Application, ZEAMX ([1]; maize, corn (Zea mays), 70 g ai/ha): G (0-29) | Visual Growth Reduction (%) 14 Days After Application, ZEAMX ([1]; maize, corn (Zea mays), 140 g ai/ha): G (0-29) | Visual Growth Reduction (%) 14 Days After Application, ORYSA ([1]; rice (Oryza sativa), 35 g ai/ha): G (0-29) | Visual Growth Reduction (%) 14 Days After Application, ORYSA ([1]; rice (Oryza sativa), 70 g ai/ha): G (0-29) | Visual Growth Reduction (%) 14 Days After Application, ORYSA ([1]; rice (Oryza sativa), 140 g ai/ha): G (0-29) | Visual Growth Reduction (%) 14 Days After Application, TRZAS ([1]; wheat, spring (Triticum aestivum), 35 g ai/ha): G (0-29) | Visual Growth Reduction (%) 14 Days After Application, TRZAS ([1]; wheat, spring (Triticum aestivum), 70 g ai/ha): G (0-29) | Visual Growth Reduction (%) 14 Days After Application, TRZAS ([1]; wheat, spring (Triticum aestivum), 140 g ai/ha): G (0-29) | Visual Growth Reduction (%) 14 Days After Application, CYPES ([1]; yellow nutsedge (Cyperus esculentus), 35 g ai/ha): G (0-29) | Visual Growth Reduction (%) 14 Days After Application, CYPES ([1]; yellow nutsedge (Cyperus esculentus), 70 g ai/ha): G (0-29) | Visual Growth Reduction (%) 14 Days After Application, CYPES ([1]; yellow nutsedge (Cyperus esculentus), 140 g ai/ha): G (0-29)

Structure (SMILES): C=Cc1c(N)nc(-c2ccc3cc[nH]c3c2F)nc1C(=O)OC [Compound 1.38]
melting point: 181 to 182 °C

Structure (SMILES): Cn1ccc2ccc(-c3nc(C(=O)O)c(Cl)c(N)c3F)cc21 [Compound 1.11]
melting point: 173 to 176 °C

Results, then the compound that gave them:

melting point: 284 to 287 °C
Structure (SMILES): Nc1c(F)c(-c2ccc3[nH]ncc3c2)nc(C(=O)O)c1Cl [Compound 4.02]

melting point: 149 to 150 °C
Structure (SMILES): Nc1c(F)c(-c2ccc3sccc3c2)nc(C(=O)O)c1Cl [Compound 3.04]

melting point: 181 to 184 °C
Structure (SMILES): COC(=O)c1nc(-c2cccc3c(Br)csc23)c(F)c(N)c1Cl [Compound 3.26, Methyl 4-amino-6-(3-bromobenzo[b]thiophen-7-yl)-3-chloro-5-fluoropicolinate]

melting point: 186 to 188 °C
Structure (SMILES): Cn1ncc2cc(-c3nc(C(=O)O)c(Cl)c(N)c3F)ccc21 [Compound 4.04]

melting point: 114 to 117 °C
Structure (SMILES): COC(=O)c1nc(-c2ccc3occc3c2)c(F)c(N)c1Cl [Compound 2.01]

melting point: 219 to 221 °C
Structure (SMILES): COC(=O)c1nc(-c2ccc3nc[nH]c3c2)c(F)c(N)c1Cl [Compound 7.01]

melting point: 173 to 175 °C
Structure (SMILES): Cn1ncc2c(-c3nc(C(=O)O)c(Cl)c(N)c3F)cccc21 [Compound 4.11]

melting point: 212 to 215 °C
Structure (SMILES): COC(=O)c1nc(-c2cccc3[nH]ncc23)c(F)c(N)c1Cl [Compound 4.12]

melting point: 230 to 235 °C (dec.)
Structure (SMILES): Cn1cnc2ccc(-c3nc(C(=O)O)c(Cl)c(N)c3F)cc21 [Compound 7.03]
